Values after ≈ are worked out from the molar mass of the structure shown. Like-named read-outs stand apart in the source and are kept apart here.
Columns and labels:
[1] = tested on: Escherichia coli ATCC BAA2469 (CRE, NDM-1-producing); assay: In vivo antibacterial activity, intraperitoneal infection in mice (survival over 7 days); details: for effective dose of in vivo antibacterial activity: mice with intraperitoneal infection by Escherichia coli ATCC BAA2469, intravenous; for Animal survival rate / Number of surviving animals: mice, one intravenous administration 1 hour post-infection, 7 days; for Number of surviving animals: 5 animals per group
Procedure: Mice were randomly grouped based on body weight, with 5 mice in each group, regardless of gender. The infectious bacteria was Escherichia coli ATCC BAA2469 (CRE, NDM-1-producing). The test bacterial solution was diluted with 5% high-activity dry yeast. Mice received intraperitoneal injection of 0.5 mL of 100% minimum lethal dose (100% MLD) bacterial solution. One intravenous administration was given at 1 hour post-infection at a dose volume of 10 mL/kg. Animal survival numbers were observed over 7 days, and survival rates were calculated.

Enterobacter cloacae = assay: In vitro antibacterial activity, agar dilution method (MIC); type: cell-based
Procedure: According to the relevant operating procedures of the Clinical Laboratory Standards Institute (CLSI) in the United States, an antimicrobial susceptibility testing was conducted using the agar dilution method. […] The agar was allowed to solidify and set aside for later use.
(§1) The test bacteria were propagated in broth and adjusted to a turbidity of 0.5 McFarland (approximately 1-2 × 10^8 CFU/mL) using a turbidimeter before inoculation. The 0.5 McFarland bacterial solution was then diluted 10-fold in broth (approximately 1-2 × 10^7 CFU/mL). A multipoint inoculator was used to inoculate the above bacterial solution onto a series of plates containing different concentrations of drugs (with an inoculation amount of approximately 10^4 CFU per inoculation site). After incubation at a constant temperature of 35°C for 18 hours, results were observed. The minimum concentration of drugs contained in sterile growth plates was determined as the Minimal Inhibitory Concentration (MIC).

Shigella flexneri = assay: as above; type: cell-based; details: 18 hours
Procedure: According to the relevant operating procedures of the Clinical Laboratory Standards Institute (CLSI) in the United States, an antimicrobial susceptibility testing was conducted using the agar dilution method. A 1920 µg/mL stock solution was serially diluted twofold with sterile water to obtain dilutions of 960, 480, 240, 120, 60, 30, 15, 7.5, 3.75, 1.88, 0.94, 0.47 µg/mL, and 1 mL of the dilution was taken respectively from the dilutions with different concentrations and added to a Petri dish, to which 14 mL of melted MH agar medium was added and mixed thoroughly, and the final concentration of the drug in the petri dish is 128, 64, 32, 16, 8, 4, 2, 1, 0.5, 0.25, 0.12, 0.06, and 0.03 µ g/mL, respectively. The agar was allowed to solidify and set aside for later use.
as §1

Pseudomonas aeruginosa = assay: as above; type: cell-based
Procedure: (§2) According to the relevant operating procedures of the Clinical Laboratory Standards Institute (CLSI) in the United States, an antimicrobial susceptibility testing was conducted using the agar dilution method. […]. The agar was allowed to solidify and set aside for later use.
as §1

Klebsiella pneumoniae = assay: as above; type: cell-based; details: agar dilution, 35°C
Procedure: as §2, §1

Escherichia coli = assay: as above; type: cell-based; details: agar dilution, 35°C
Procedure: as §2, §1

Proteus mirabilis = assay: as above; type: cell-based
Procedure: as §2, §1

Serratia marcescens = assay: as above; type: cell-based
Procedure: as §2, §1

Proteus vulgaris = assay: as above; type: cell-based
Procedure: as §2, §1

Pantoea agglomerans = assay: as above; type: cell-based
Procedure: as §2, §1

Enterobacter aerogenes = assay: as above; type: cell-based
Procedure: as §2, §1

Citrobacter freundii = assay: as above; type: cell-based
Procedure: as §2, §1

Vero cells = assay: Vero cytotoxicity (CCK-8); type: cell-based
Procedure: All liquid was transferred to a 15 mL centrifuge tube and centrifuged at 800 rpm for 5 min. […] A cell counter was used to measure cell density. Cells were inoculated at 100 µL and a density of 3 × 10^5/mL into a 96-well plate, with 6 replicates per group, and incubated at 37°C for 4 hours to allow cells to adhere to the wall. The compound was twofold continuously diluted with PBS, and 10 µL of the compound with the corresponding concentration was added to the 96-well plate, and shaken and mixed well on a shaker, and then incubated at 37°C for 24 hours. 10 µL of CCK-8 reagent was added to the 96-well plate, mixed thoroughly on a shaker, and incubated at 37°C for 2 hours. A microplate reader was used to measure the absorbance at 450 nm wavelength, and the inhibition rate of the compound on Vero cells was calculated. Table 5 Vero cytotoxicity of 4 optical isomers and control drug

[2] = ATCC12022, Shigella flexneri ATCC 12022, 35°C, read-out: MIC
[3] = Klebsiella pneumoniae, 18 h, Klebsiella pneumoniae 18-8 (ESBLs-producing), 18 hours, read-out: MIC
[4] = Klebsiella pneumoniae, ATCC700603, 18 h, Klebsiella pneumoniae ATCC 700603 (ESBLs-producing), 18 hours, read-out: MIC
[5] = Escherichia coli, ATCC35218, 18 h, Escherichia coli ATCC 35218 (ESBLs-producing), 18 hours, read-out: MIC

COCC1CC1C#CC#Cc1ccc(C(=O)NC(C(=O)NO)C(C)(C)N)cc1 (mixture of isomers) [Ia/Ib racemate]
effective dose of in vivo antibacterial activity [1]: below 1.5 mg/kg
Animal survival rate ([1]; dose 0.35 mg/kg): 0%
Number of surviving animals ([1]; dose 0.35 mg/kg): 0 individuals
Animal survival rate ([1]; dose 0.7 mg/kg): 0%
Number of surviving animals ([1]; dose 0.7 mg/kg): 0 individuals
Animal survival rate ([1]; dose 1.4 mg/kg): 40%
Number of surviving animals ([1]; dose 1.4 mg/kg): 2 individuals
MIC (Enterobacter cloacae; Enterobacter cloacae CDC1000654 (NDM-1-producing), agar dilution, 35°C, 18 hours): 2 µg/mL
MIC (Shigella flexneri; Shigella flexneri ATCC 12022, 35°C): 0.12 µg/mL
MIC (Pseudomonas aeruginosa; Pseudomonas aeruginosa PAO1, agar dilution, 35°C, 18 hours): 1 µg/mL
MIC (Klebsiella pneumoniae; Klebsiella pneumoniae 09-20 (mcr-1), 18 hours): 0.5 µg/mL
MIC (Klebsiella pneumoniae; Klebsiella pneumoniae 17-R27 (CRE), 18 hours): 1 µg/mL
MIC (Klebsiella pneumoniae; Klebsiella pneumoniae 18-8 (ESBLs-producing), 18 hours): 0.5 µg/mL
MIC (Klebsiella pneumoniae; Klebsiella pneumoniae ATCC 700603 (ESBLs-producing), 18 hours): 2 µg/mL
MIC (Klebsiella pneumoniae; Klebsiella pneumoniae ATCC BAA-2146 (CRE, NDM-1-producing), 18 hours): 2 µg/mL
MIC (Escherichia coli; Escherichia coli 13-43 (mcr-1), 18 hours): 0.12 µg/mL
MIC (Escherichia coli; Escherichia coli 17-R28 (CRE, NDM-1-producing), 18 hours): 0.12 µg/mL
MIC (Escherichia coli; Escherichia coli ATCC 2469 (CRE, NDM-1-producing), 18 hours): 0.5 µg/mL
MIC (Escherichia coli; Escherichia coli ATCC 35218 (ESBLs-producing), 18 hours): 0.25 µg/mL
MIC (Proteus mirabilis; Proteus mirabilis ATCC 49565, agar dilution, 35°C, 18 hours): 1 µg/mL
MIC (Serratia marcescens; Serratia marcescens ATCC 21074, agar dilution, 35°C, 18 hours): 0.25 µg/mL
MIC (Proteus vulgaris; Proteus vulgaris ATCC 29905, agar dilution, 35°C, 18 hours): 0.25 µg/mL
MIC (Pantoea agglomerans; Pantoea agglomerans ATCC 27993, agar dilution, 35°C, 18 hours): 1 µg/mL
MIC (Enterobacter aerogenes; Enterobacter aerogenes ATCC 13048, agar dilution, 35°C, 18 hours): 1 µg/mL
MIC (Citrobacter freundii; Citrobacter freundii ATCC 43864, agar dilution, 35°C, 18 hours): 0.25 µg/mL
IC50 (Vero cells; Vero cells, 24 hours incubation, CCK-8, read-out: IC50): > 128 µM

CC(C)(N)[C@H](NC(=O)c1ccc(C#CC#C[C@@H]2C[C@H]2CO)cc1)C(=O)NO [ACHN-975]
effective dose of in vivo antibacterial activity [1]: > 1.5 mg/kg
Animal survival rate ([1]; dose 1.5 mg/kg): 0%
Number of surviving animals ([1]; dose 1.5 mg/kg): 0 individuals
Animal survival rate ([1]; dose 3 mg/kg): 60%
Number of surviving animals ([1]; dose 3 mg/kg): 3 individuals
Animal survival rate ([1]; dose 6 mg/kg): 100%
Number of surviving animals ([1]; dose 6 mg/kg): 5 individuals
MIC (Enterobacter cloacae; Enterobacter cloacae, 18 h): 4 µg/mL (≈ 10.8 µM)
MIC (Shigella flexneri; [2]): 0.12 µg/mL (≈ 0.325 µM)
MIC (Pseudomonas aeruginosa; Pseudomonas aeruginosa, PAO1, 18 h): 0.25 µg/mL (≈ 0.677 µM)
MIC (Klebsiella pneumoniae; Klebsiella pneumoniae, 18 h, Klebsiella pneumoniae 09-20 (mcr-1)): 1 µg/mL (≈ 2.71 µM)
MIC (Klebsiella pneumoniae; Klebsiella pneumoniae, 18 h, Klebsiella pneumoniae 17-R27 (CRE)): 2 µg/mL (≈ 5.41 µM)
MIC (Klebsiella pneumoniae; [3]): 1 µg/mL (≈ 2.71 µM)
MIC (Klebsiella pneumoniae; [4]): 4 µg/mL (≈ 10.8 µM)
MIC (Klebsiella pneumoniae; Klebsiella pneumoniae, ATCCBAA2146, 18 h, Klebsiella pneumoniae ATCC BAA-2146 (CRE, NDM-1-producing), 18 hours): 4 µg/mL (≈ 10.8 µM)
MIC (Escherichia coli; Escherichia coli, 18 h, Escherichia coli 13-43 (mcr-1)): 0.5 µg/mL (≈ 1.35 µM)
MIC (Escherichia coli; Escherichia coli, 18 h, Escherichia coli 17-R28 (CRE, NDM-1-producing)): 0.5 µg/mL (≈ 1.35 µM)
MIC (Escherichia coli; Escherichia coli, ATCC2469, 18 h, Escherichia coli ATCC 2469 (CRE, NDM-1-producing), 18 hours): 0.5 µg/mL (≈ 1.35 µM)
MIC (Escherichia coli; [5]): 0.5 µg/mL (≈ 1.35 µM)
MIC (Proteus mirabilis; Proteus mirabilis, ATCC49565, 18 h): 2 µg/mL (≈ 5.41 µM)
MIC (Serratia marcescens; Serratia marcescens, ATCC21074, 18 h): 0.25 µg/mL (≈ 0.677 µM)
MIC (Proteus vulgaris; Proteus vulgaris, ATCC29905, 18 h): 0.06 µg/mL (≈ 0.162 µM)
MIC (Pantoea agglomerans; Pantoea agglomerans, ATCC27993, 18 h): 4 µg/mL (≈ 10.8 µM)
MIC (Enterobacter aerogenes; Klebsiella aerogenes, ATCC13048, 18 h): 1 µg/mL (≈ 2.71 µM)
MIC (Citrobacter freundii; Citrobacter freundii, ATCC43864, 18 h): 0.5 µg/mL (≈ 1.35 µM)
IC50 (Vero cells; Chlorocebus sabaeus, Vero, 24 h): > 128 µM

CO[C@H]1CCC[C@@H]1C#CC#Cc1ccc(C(=O)N[C@H](C(=O)NO)C(C)(C)N)cc1 [A]
effective dose of in vivo antibacterial activity [1]: > 3 mg/kg
Animal survival rate ([1]; dose 1.5 mg/kg): 0%
Number of surviving animals ([1]; dose 1.5 mg/kg): 0 individuals
Animal survival rate ([1]; dose 3 mg/kg): 0%
Number of surviving animals ([1]; dose 3 mg/kg): 0 individuals
Animal survival rate ([1]; dose 6 mg/kg): 20%
Number of surviving animals ([1]; dose 6 mg/kg): 1 individuals
MIC (Enterobacter cloacae; Enterobacter cloacae CDC1000654 (NDM-1-producing), agar dilution, 35°C, 18 hours, read-out: MIC): 4 µg/mL (≈ 10.1 µM)
MIC (Shigella flexneri; [2]): 0.25 µg/mL (≈ 0.629 µM)
MIC (Pseudomonas aeruginosa; Pseudomonas aeruginosa PAO1, agar dilution, 35°C, 18 hours, read-out: MIC): 2 µg/mL (≈ 5.03 µM)
MIC (Klebsiella pneumoniae; Klebsiella pneumoniae, 18 h, Klebsiella pneumoniae 09-20 (mcr-1), 18 hours, read-out: MIC): 1 µg/mL (≈ 2.52 µM)
MIC (Klebsiella pneumoniae; Klebsiella pneumoniae, 18 h, Klebsiella pneumoniae 17-R27 (CRE), 18 hours, read-out: MIC): 1 µg/mL (≈ 2.52 µM)
MIC (Klebsiella pneumoniae; [3]): 0.5 µg/mL (≈ 1.26 µM)
MIC (Klebsiella pneumoniae; [4]): 8 µg/mL (≈ 20.1 µM)
MIC (Klebsiella pneumoniae; Klebsiella pneumoniae, ATCCBAA2146, 18 h, Klebsiella pneumoniae ATCC BAA-2146 (CRE, NDM-1-producing), 18 hours, read-out: MIC): 8 µg/mL (≈ 20.1 µM)
MIC (Escherichia coli; Escherichia coli, 18 h, Escherichia coli 13-43 (mcr-1), 18 hours, read-out: MIC): 1 µg/mL (≈ 2.52 µM)
MIC (Escherichia coli; Escherichia coli, 18 h, Escherichia coli 17-R28 (CRE, NDM-1-producing), 18 hours, read-out: MIC): 0.25 µg/mL (≈ 0.629 µM)
MIC (Escherichia coli; Escherichia coli, ATCC2469, 18 h, Escherichia coli ATCC 2469 (CRE, NDM-1-producing), 18 hours, read-out: MIC): 0.12 µg/mL (≈ 0.302 µM)
MIC (Escherichia coli; [5]): 0.25 µg/mL (≈ 0.629 µM)
MIC (Proteus mirabilis; ATCC49565, Proteus mirabilis ATCC 49565, agar dilution, 35°C, 18 hours, read-out: MIC): 1 µg/mL (≈ 2.52 µM)
MIC (Serratia marcescens; ATCC21074, Serratia marcescens ATCC 21074, agar dilution, 35°C, 18 hours, read-out: MIC): 0.25 µg/mL (≈ 0.629 µM)
MIC (Proteus vulgaris; ATCC29905, Proteus vulgaris ATCC 29905, agar dilution, 35°C, 18 hours, read-out: MIC): 0.5 µg/mL (≈ 1.26 µM)
MIC (Pantoea agglomerans; ATCC27993, Pantoea agglomerans ATCC 27993, agar dilution, 35°C, 18 hours, read-out: MIC): 2 µg/mL (≈ 5.03 µM)
MIC (Enterobacter aerogenes; Klebsiella aerogenes, ATCC13048, Enterobacter aerogenes ATCC 13048, agar dilution, 35°C, 18 hours, read-out: MIC): 0.5 µg/mL (≈ 1.26 µM)
MIC (Citrobacter freundii; ATCC43864, Citrobacter freundii ATCC 43864, agar dilution, 35°C, 18 hours, read-out: MIC): 0.25 µg/mL (≈ 0.629 µM)
IC50 (Vero cells; Chlorocebus sabaeus, Vero cells, 24 hours incubation, CCK-8, read-out: IC50): > 64 µM

Source: patent EP4745118A1, “HYDROXAMIC ACID COMPOUND OR PHARMACEUTICALLY ACCEPTABLE SALT THEREOF, AND USE THEREOF AND PREPARATION METHOD THEREFOR” (priority 2023, dated 2025)
